US20250313548A1 (Actio Biosciences, Inc., priority 2023, published 2025)

Biological target: human, KCNT1 (Homo sapiens (Human), UniProt Q5JUK3)
Assay: FLIPR Tl/K Flux Assay
Type: cell-based
Details: HEK293 cells stably expressing human KCNT1; Tl+ flux stimulated with EC80 of agonist Loxapine
Method: HEK293 cells stably expressing human, KCNT1 were cultured in DMEM, 10% FBS, 100 U/mL penicillin-streptomycin and […] puromycin for selection purposes. One day before the assay, cells were detached using TrypLE™ Express and counted using a cell counter. Only cells with >85% viability were used for the assay. […] The cells were incubated overnight at 37° C., 5% (v/v) CO2.
On the day of the assay, the reagents were prepared following the FLIPR® Potassium Assay Kit manual: prepare 2× dye solution, dilute the dye with assay buffer (20 mM HEPES in 1× HBSS, PH7.4), addition of probenecid to a final concentration of 5 mM, and vortexed vigorously for 1-2 minutes. The cell plate was flicked to remove medium and tapped on paper towels to remove excess media. […] The cell plate was moved to a plate shaker, agitated at 600 rpm for two minutes, and then incubated at 25° C. for one hour.
The compounds were prepared in DMSO and transferred to a 384-well compound plate (PP, low binding), referred to as a source plate. Reference agonist (300 nM) compound and test inhibitor (10 mM) compounds were added to the compound plate and a 4-fold serial dilution was performed in DMSO. Using an ECHO dispenser, compounds were dispensed at 90 nL/well from the source plate to a 384-well compound plate (PP, low binding). After the dispensing was complete, 30 µL/well assay buffer was added to the compound plate and mixed for two minutes on a plate shaker. The cell plate, compound plate, and tips were loaded into the FLIPR instrument, and a transfer of 10 μl of 3× compound to the cell plate was initiated. The treated cell plate was kept at in the dark at 25° C. for 30 minutes. Chloride-free stimulation buffer containing 4× 2 mM Tl+ and 4×EC80 of agonist Loxapine was loaded into a 384-well compound plate (PP, low binding). After the 30-minute incubation, the cell plate, compound plate containing stimulation buffer, and FLIPR tips were loaded into the FLIPR instrument. After a baseline read, the FLIPR initiates a transfer of 10 μL of stimulation buffer containing Loxapine to the cell plate. The plate was read for 160 sec with 1 second interval reads to obtain the data.
The normalized fluorescence reading (RFU) was calculated as shown follow, while Fmax and Fmin stand for maximum and minimum of signal during defined time window. The IC50 was calculated by fitting % inhibition against log of compound concentrations with Hill equation using XLfit.

human, KCNT1, sequence (Q5JUK3 whole entry): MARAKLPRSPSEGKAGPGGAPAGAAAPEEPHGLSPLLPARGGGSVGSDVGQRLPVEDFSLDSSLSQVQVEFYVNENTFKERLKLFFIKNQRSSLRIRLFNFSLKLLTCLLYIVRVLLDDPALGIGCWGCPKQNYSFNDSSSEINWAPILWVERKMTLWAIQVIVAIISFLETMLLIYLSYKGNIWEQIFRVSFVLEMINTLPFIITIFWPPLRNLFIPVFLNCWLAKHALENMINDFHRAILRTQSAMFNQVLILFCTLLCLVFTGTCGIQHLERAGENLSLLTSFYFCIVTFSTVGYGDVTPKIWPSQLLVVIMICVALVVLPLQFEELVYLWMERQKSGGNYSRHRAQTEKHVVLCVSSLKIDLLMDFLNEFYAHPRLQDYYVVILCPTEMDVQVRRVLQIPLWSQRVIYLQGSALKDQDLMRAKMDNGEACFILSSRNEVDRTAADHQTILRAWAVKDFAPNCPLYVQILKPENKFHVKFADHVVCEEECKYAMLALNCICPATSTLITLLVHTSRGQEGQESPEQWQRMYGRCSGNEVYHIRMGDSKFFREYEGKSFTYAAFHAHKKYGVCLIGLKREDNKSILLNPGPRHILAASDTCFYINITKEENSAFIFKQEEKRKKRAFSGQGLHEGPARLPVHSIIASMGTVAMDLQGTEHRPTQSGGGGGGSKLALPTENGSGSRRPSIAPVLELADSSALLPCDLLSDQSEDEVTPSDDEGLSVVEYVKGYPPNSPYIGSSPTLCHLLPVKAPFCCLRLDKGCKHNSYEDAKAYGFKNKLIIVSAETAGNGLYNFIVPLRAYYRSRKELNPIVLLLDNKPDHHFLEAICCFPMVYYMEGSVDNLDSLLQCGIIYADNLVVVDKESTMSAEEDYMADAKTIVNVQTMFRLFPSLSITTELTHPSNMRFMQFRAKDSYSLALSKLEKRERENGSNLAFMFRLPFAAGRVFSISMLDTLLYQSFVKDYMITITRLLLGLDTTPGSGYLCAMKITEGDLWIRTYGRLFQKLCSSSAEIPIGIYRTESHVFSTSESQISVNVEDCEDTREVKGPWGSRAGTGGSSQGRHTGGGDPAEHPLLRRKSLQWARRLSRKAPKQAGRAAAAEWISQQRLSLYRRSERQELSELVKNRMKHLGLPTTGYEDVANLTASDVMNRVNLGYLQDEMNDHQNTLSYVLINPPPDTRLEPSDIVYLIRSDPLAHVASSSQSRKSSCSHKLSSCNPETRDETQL

SMILES	IC50
Cn1nc(C(F)(F)F)cc1C(=O)NC1CCc2nn(-c3ccnc(C(F)(F)F)c3)cc21 (racemic) [Compound I-1, (rac)-1-Methyl-3-(trifluoromethyl)-N-(2-(2-(trifluoromethyl)pyridin-4-yl)-2,4,5,6-tetrahydrocyclopenta[c]pyrazol-4-yl)-1H-pyrazole-5-carboxamide]	< 250 nM
Cn1nc(C(F)(F)F)cc1C(=O)NC1CCCc2nn(-c3ccnc(C(F)(F)F)c3)cc21 (racemic) [Compound I-4, (rac)-1-Methyl-3-(trifluoromethyl)-N-(2-(2-(trifluoromethyl)pyridin-4-yl)-4,5,6,7-tetrahydro-2H-indazol-4-yl)-1H-pyrazole-5-carboxamide]	< 250 nM
CCn1nc(C(F)(F)F)cc1C(=O)NC1CCCc2nn(-c3ccnc(C(F)(F)F)c3)cc21 (racemic) [Compound I-7, (rac)-1-Ethyl-3-(trifluoromethyl)-N-(2-(2-(trifluoromethyl)pyridin-4-yl)-4,5,6,7-tetrahydro-2H-indazol-4-yl)-1H-pyrazole-5-carboxamide]	< 250 nM
CC(C)n1nc(C(F)(F)F)cc1C(=O)NC1CCCc2nn(-c3ccnc(C(F)(F)F)c3)cc21 (racemic) [Compound I-8, (rac)-1-Isopropyl-3-(trifluoromethyl)-N-(2-(2-(trifluoromethyl)pyridin-4-yl)-4,5,6,7-tetrahydro-2H-indazol-4-yl)-1H-pyrazole-5-carboxamide]	< 250 nM
Cn1nc(C(C)(F)F)cc1C(=O)NC1CCCc2nn(-c3ccnc(C(F)(F)F)c3)cc21 (racemic) [Compound I-10, (rac)-3-(1,1-Difluoroethyl)-1-methyl-N-(2-(2-(trifluoromethyl)pyridin-4-yl)-4,5,6,7-tetrahydro-2H-indazol-4-yl)-1H-pyrazole-5-carboxamide]	< 250 nM
Cn1nc(C2CC2)cc1C(=O)NC1CCCc2nn(-c3ccnc(C(F)(F)F)c3)cc21 (racemic) [Compound I-11, (rac)-3-Cyclopropyl-1-methyl-N-(2-(2-(trifluoromethyl)pyridin-4-yl)-4,5,6,7-tetrahydro-2H-indazol-4-yl)-1H-pyrazole-5-carboxamide]	250 to 500 nM
Cn1nc(C(F)F)cc1C(=O)NC1CCCc2nn(-c3ccnc(C(F)(F)F)c3)cc21 (racemic) [Compound I-12, (rac)-3-(Difluoromethyl)-1-methyl-N-(2-(2-(trifluoromethyl)pyridin-4-yl)-4,5,6,7-tetrahydro-2H-indazol-4-yl)-1H-pyrazole-5-carboxamide]	< 250 nM
O=C(NC1CCCc2nn(-c3ccnc(C(F)(F)F)c3)cc21)c1ccccc1 (racemic) [Compound I-13, (rac)-N-(2-(2-(Trifluoromethyl)pyridin-4-yl)-4,5,6,7-tetrahydro-2H-indazol-4-yl)benzamide]	< 250 nM
CCOc1cc(-n2cc3c(n2)CCCC3NC(=O)c2cc(Cl)cc(C(F)(F)F)c2)ccn1 (racemic) [Compound I-14, (rac)-3-Chloro-N-(2-(2-ethoxypyridin-4-yl)-4,5,6,7-tetrahydro-2H-indazol-4-yl)-5-(trifluoromethyl)benzamide]	< 250 nM
CCOc1cc(-n2cc3c(n2)CCCC3NC(=O)c2cc(C)cc(C(F)(F)F)c2)ccn1 (racemic) [Compound I-15, (rac)-N-(2-(2-Ethoxypyridin-4-yl)-4,5,6,7-tetrahydro-2H-indazol-4-yl)-3-methyl-5-(trifluoromethyl)benzamide]	< 250 nM
O=C(NC1CCCc2nn(-c3ccnc(C(F)(F)F)c3)cc21)c1ccc(C(F)(F)F)cc1 (racemic) [Compound I-16, (rac)-4-(Trifluoromethyl)-N-(2-(2-(trifluoromethyl)pyridin-4-yl)-4,5,6,7-tetrahydro-2H-indazol-4-yl)benzamide]	< 250 nM
Cc1cccc(C(=O)NC2CCCc3nn(-c4ccnc(C(F)(F)F)c4)cc32)c1 (racemic) [Compound I-17, (rac)-3-Methyl-N-(2-(2-(trifluoromethyl)pyridin-4-yl)-4,5,6,7-tetrahydro-2H-indazol-4-yl)benzamide]	< 250 nM

Second part, the compound after the results:

IC50	SMILES
< 250 nM	CCOc1cc(-n2cc3c(n2)CCCC3NC(=O)c2cccc(C(F)(F)F)c2)ccn1 (racemic) [Compound I-18, (rac)-N-(2-(2-Ethoxypyridin-4-yl)-4,5,6,7-tetrahydro-2H-indazol-4-yl)-3-(trifluoromethyl)benzamide]
250 to 500 nM	O=C(NC1CCCc2nn(-c3ccnc(C(F)(F)F)c3)cc21)c1ccc(C(F)(F)F)nc1 (racemic) [Compound I-19, (rac)-6-(Trifluoromethyl)-N-(2-(2-(trifluoromethyl)pyridin-4-yl)-4,5,6,7-tetrahydro-2H-indazol-4-yl)nicotinamide]
< 250 nM	O=C(NC1CCCc2nn(-c3ccnc(C(F)(F)F)c3)cc21)c1ccnc(C(F)(F)F)c1 (racemic) [Compound I-20, (rac)-2-(Trifluoromethyl)-N-(2-(2-(trifluoromethyl)pyridin-4-yl)-4,5,6,7-tetrahydro-2H-indazol-4-yl)isonicotinamide]
> 1000 nM	COc1cc(C(=O)NC2CCCc3nn(-c4ccnc(C(F)(F)F)c4)cc32)n(C)n1 (racemic) [Compound I-21, (rac)-3-Methoxy-1-methyl-N-(2-(2-(trifluoromethyl)pyridin-4-yl)-4,5,6,7-tetrahydro-2H-indazol-4-yl)-1H-pyrazole-5-carboxamide]
250 to 500 nM	CCOc1cc(C(=O)NC2CCCc3nn(-c4ccnc(C(F)(F)F)c4)cc32)n(C)n1 (racemic) [Compound I-22, (rac)-3-Ethoxy-1-methyl-N-(2-(2-(trifluoromethyl)pyridin-4-yl)-4,5,6,7-tetrahydro-2H-indazol-4-yl)-1H-pyrazole-5-carboxamide]
> 1000 nM	COCc1cc(C(=O)NC2CCCc3nn(-c4ccnc(C(F)(F)F)c4)cc32)n(C)n1 (racemic) [Compound I-23, (rac)-3-(Methoxymethyl)-1-methyl-N-(2-(2-(trifluoromethyl)pyridin-4-yl)-4,5,6,7-tetrahydro-2H-indazol-4-yl)-1H-pyrazole-5-carboxamide]
500 to 1000 nM	Cn1cc(C(F)(F)F)nc1C(=O)NC1CCCc2nn(-c3ccnc(C(F)(F)F)c3)cc21 (racemic) [Compound I-24, (rac)-1-Methyl-4-(trifluoromethyl)-N-(2-(2-(trifluoromethyl)pyridin-4-yl)-4,5,6,7-tetrahydro-2H-indazol-4-yl)-1H-imidazole-2-carboxamide]
250 to 500 nM	COc1cc(-n2cc3c(n2)CCCC3NC(=O)c2cc(C(F)(F)F)nn2C)ccn1 (racemic) [Compound I-25, (rac)-N-(2-(2-Methoxypyridin-4-yl)-4,5,6,7-tetrahydro-2H-indazol-4-yl)-1-methyl-3-(trifluoromethyl)-1H-pyrazole-5-carboxamide]
250 to 500 nM	Cn1nc2ccccc2c1C(=O)NC1CCCc2nn(-c3ccnc(C(F)(F)F)c3)cc21 (racemic) [Compound I-26, (rac)-2-Methyl-N-(2-(2-(trifluoromethyl)pyridin-4-yl)-4,5,6,7-tetrahydro-2H-indazol-4-yl)-2H-indazole-3-carboxamide]
250 to 500 nM	CCOc1cc(-n2cc3c(n2)CCCC3NC(=O)c2cc(C(F)(F)F)ccc2C)ccn1 (racemic) [Compound I-28, (rac)-N-(2-(2-Ethoxypyridin-4-yl)-4,5,6,7-tetrahydro-2H-indazol-4-yl)-2-methyl-5-(trifluoromethyl)benzamide]
> 1000 nM	Cc1ccccc1C(=O)NC1CCCc2nn(-c3ccnc(C(F)(F)F)c3)cc21 (racemic) [Compound I-29, (rac)-2-Methyl-N-(2-(2-(trifluoromethyl)pyridin-4-yl)-4,5,6,7-tetrahydro-2H-indazol-4-yl)benzamide]
500 to 1000 nM	CCOc1cc(-n2cc3c(n2)CCCC3NC(=O)c2ccc3ccccc3c2)ccn1 (racemic) [Compound I-30, (rac)-N-(2-(2-Ethoxypyridin-4-yl)-4,5,6,7-tetrahydro-2H-indazol-4-yl)-2-naphthamide]
> 1000 nM	O=C(NC1CCCc2nn(-c3ccnc(C(F)(F)F)c3)cc21)c1ccccn1 (racemic) [Compound I-31, (rac)-N-(2-(2-(Trifluoromethyl)pyridin-4-yl)-4,5,6,7-tetrahydro-2H-indazol-4-yl)picolinamide]
> 1000 nM	O=C(NC1CCCc2nn(-c3ccnc(C(F)(F)F)c3)cc21)c1cccnc1 (racemic) [Compound I-32, (rac)-N-(2-(2-(Trifluoromethyl)pyridin-4-yl)-4,5,6,7-tetrahydro-2H-indazol-4-yl)nicotinamide]
